In brackets after ≈: the same amount, converted by molar mass. Several values for one entry are separate records, joined by “and”; a condition that tells them apart may be missing. Equal entries are not always repeated. Where two headings read alike, the source gives them in different places.
Key:
Type in all cases: cell-based
[1] = tested on: promastigote stage of Leishmania mexicana; experiment: Antiparasitic activity on the promastigote form of Leishmania (MTT); settings: for IC50: read-out: CI50 Leishmania mexicana Promastigotes
[2] = tested on: Aspergillus fumigatus (strain n°AF 980003); experiment: Antifungal activity on a clinical strain of Aspergillus fumigatus (Alamar Blue microplate test); settings: for MIC / CMI or CI80 Aspergillus fumigatus (AF980003): strain AF980003; for MIC: read-out: CMI or CI80 Aspergillus fumigatus (AF980003); for activity against Aspergillus fumigatus (in words): summary of Tables 27 to 40
[3] = tested on: Candida albicans (strain n° CA980001); experiment: Antifungal activity on a clinical strain of Candida albicans (MTT colorimetric microplate test); settings: for MIC / CMI or CI80 Candida albicans (CA980001): strain CA980001; for MIC: read-out: CMI or CI80 Candida albicans (CA980001); for activity of inhibition of Candida albicans (in words): summary of Tables 27 to 40
[4] = promastigotes, 36 h at 26° C., MTT

## Fc1ccccc1Cn1cc(Cn2cncn2)c2cc(Br)ccc21 [compound 24]
[1]
  CI50 Leishmania mexicana Promastigotes: 30.74 µg/mL (≈ 79.8 µM)
  IC50: 79.8 µM
[2]; Alamar Blue
  MIC: >100 µM
[3]; 24 h at 37° C., MTT
  MIC: >100 µM

## CCn1cc(C(c2ccc(Cl)cc2)n2ccnc2)c2ccccc21.O=[N+]([O-])O (centres unmarked) [41n]
[3]
  CMI or CI80 Candida albicans (CA980001): 19 ± 10 μM and 8 ± 4 μg/mL

## Fc1ccc(Cn2cc(Cn3ccnc3)c3cc(Br)ccc32)cc1 [compound 12]
[1]
  CI50 Leishmania mexicana Promastigotes: 7.9 ± 0.9 µg/mL (≈ 20.6 µM)
  IC50: 20.6 ± 2.4 µM
[2]; Alamar Blue
  MIC: >100 µM
[3]; 24 h at 37° C., MTT
  MIC: >100 µM

## CCn1c(C(c2ccc(F)cc2)n2ccnc2)c(C)c2ccccc21.O=[N+]([O-])O (centres unmarked) [31n]
[1]
  activity against Leishmania mexicana (in words): most active
[1]; promastigotes
  IC50: < 0.1 µM
[2]
  CMI or CI80 Aspergillus fumigatus (AF980003): 16 ± 3 μM and 6 ± 1 μg/mL
  activity against Aspergillus fumigatus (in words): most active
[3]
  CMI or CI80 Candida albicans (CA980001): 7 ± 0.3 μM and 2.77 ± 0.3 μg/mL
  activity of inhibition of Candida albicans (in words): significant activity

## CCn1c(C(c2ccc(Cl)cc2)n2ccnc2)c(C)c2cc(Br)ccc21 (centres unmarked) [compound 33]
[1]
  activity against Leishmania mexicana (in words): strong activity
[1]; promastigotes
  CI50 Leishmania mexicana Promastigotes: 2.87 ± 2 µg/mL (≈ 6.69 µM)
  IC50: 6.7 ± 2.1 µM
[2]
  CMI or CI80 Aspergillus fumigatus (AF980003): 56 ± 3 μM and 24 ± 1 μg/mL
  activity against Aspergillus fumigatus (in words): strong activity
[3]
  CMI or CI80 Candida albicans (CA980001): 59 ± 1 μM and 25 ± 0.5 μg/mL

## CCCC(c1cn(Cc2ccc(Cl)cc2)c2ccccc12)n1ccnc1.O=C(O)/C=C/C(=O)O (centres unmarked) [65f]
[1]
  CI50 Leishmania mexicana Promastigotes: 37.7 ± 4.5 µg/mL
  IC50: 78.7 ± 9.5 µM
[2]
  MIC: >100 µM
[3]
  MIC: >100 µM

## Fc1ccc(Cn2cc(Cn3cncn3)c3cc(Br)ccc32)cc1 [compound 25]
[1]
  CI50 Leishmania mexicana Promastigotes: 19.38 µg/mL (≈ 50.3 µM)
  IC50: 50.3 µM
[2]; Alamar Blue
  MIC: >100 µM
[3]; 24 h at 37° C., MTT
  MIC: >100 µM

## CCn1ccc2cc(Br)cc(C(c3ccc(F)cc3)n3ccnc3)c21 (centres unmarked) [compound 58]
[1]; promastigotes
  CI50 Leishmania mexicana Promastigotes: 2.4 ± 0.12 µg/mL (≈ 6.03 µM)
  IC50: 6.2 ± 0.35 µM
[2]
  CMI or CI80 Aspergillus fumigatus (AF980003): 59 ± 4 μM and 23 ± 2 μg/mL
  activity against Aspergillus fumigatus (in words): strong activity
[3]
  CMI or CI80 Candida albicans (CA980001): 0.69 ± 0.01 μM and 0.27 ± 0.01 μg/mL
  activity of inhibition of Candida albicans (in words): most active

## CCn1c(C(c2cccc(Cl)c2)n2ccnc2)c(C)c2ccccc21.O=[N+]([O-])O (centres unmarked) [28n]
[3]
  CMI or CI80 Candida albicans (CA980001): 58 ± 2 μM and 24 ± 1 μg/mL

## CCn1c(C(c2ccc(Cl)cc2)n2ccnc2)c(C)c2ccccc21.O=[N+]([O-])O (centres unmarked) [29n]
[3]
  CMI or CI80 Candida albicans (CA980001): 6 ± 1 μM and 2 ± 1 μg/mL
  activity of inhibition of Candida albicans (in words): significant activity

## CCN1CCc2cccc(C(c3ccc(F)cc3)n3ccnc3)c21 (centres unmarked) [compound 50]
[1]
  activity against Leishmania mexicana (in words): most active
[1]; [4]
  CI50 Leishmania mexicana Promastigotes: 0.24 ± 0.017 µg/mL (≈ 0.747 µM)
  IC50: 0.74 ± 0.017 µM
[2]; Alamar Blue
  CMI or CI80 Aspergillus fumigatus (AF980003): 5.4 ± 0.2 μM and 1.7 ± 0.1 μg/ml
[2]
  activity against Aspergillus fumigatus (in words): most active
[3]; 24 h at 37° C., MTT
  CMI or CI80 Candida albicans (CA980001): 0.67 ± 0.01 μM and 0.22 ± 0.01 μg/ml
[3]
  activity of inhibition of Candida albicans (in words): most active

## Clc1ccc(Cn2cc(CCCn3ccnc3)c3ccccc32)cc1 [compound 60]
[1]
  CI50 Leishmania mexicana Promastigotes: 26.1 µg/mL (≈ 74.6 µM)
  IC50: 74.7 µM
[2]
  MIC: >100 µM
[3]
  MIC: >100 µM

## OC(Cn1cncn1)(Cn1ccc2ccccc21)c1ccc(C(F)(F)F)cc1 (centres unmarked) [compound 79]
[3]
  MIC: <0.001 µM

## OC(Cn1ccnc1)(Cn1ccc2ccccc21)c1ccc(F)cc1F (centres unmarked) [compound 77]
[1]; promastigotes
  CI50 Leishmania mexicana Promastigotes: 1.59 µg/mL (≈ 4.5 µM)
  IC50: 4.5 µM
[2]
  CMI or CI80 Aspergillus fumigatus (AF980003): 11 ± 7 μM and 4 ± 2 μg/mL
[3]
  CMI or CI80 Candida albicans (CA980001): 0.00035 µg/mL
  MIC: 0.0011 µM (≈ 0.000389 µg/mL)
  activity of inhibition of Candida albicans (in words): most active

## CC(n1ccc2ccccc21)C(O)(Cn1cncn1)c1ccc(F)cc1F (centres unmarked) [compound 81]
[3]
  MIC: <0.001 µM

## Cc1c(C(C)n2ccnc2)c2ccccc2n1Cc1ccc(Cl)cc1Cl.O=[N+]([O-])O (centres unmarked) [71n]
[2]
  CMI or CI80 Aspergillus fumigatus (AF980003): 74 ± 3 μM and 28.44 μg/mL
[3]
  CMI or CI80 Candida albicans (CA980001): 52 ± 3 μM and 23.31 μg/mL

## CC(C)(C)c1ccc(Cn2cc(Cn3ccnc3)c3ccccc32)cc1.O=C(O)/C=C/C(=O)O [7f]
[1]
  CI50 Leishmania mexicana Promastigotes: 3.9 ± 0.09 µg/mL
  activity against Leishmania mexicana (in words): strong activity
  IC50: 8.4 ± 0.5 µM
[2]; Alamar Blue
  CMI or CI80 Aspergillus fumigatus (AF980003): 70 ± 3 μM and 32.17 ± 3 μg/ml
[3]; 24 h at 37° C., MTT
  MIC: >100 µM

## CC(c1cn(Cc2ccc(F)cc2)c2ccccc12)n1ccnc1.O=C(O)/C=C/C(=O)O (centres unmarked) [67f]
[1]; promastigotes
  CI50 Leishmania mexicana Promastigotes: 1.57 ± 1.2 µg/mL
  IC50: 3.6 ± 1.2 µM
[2]
  CMI or CI80 Aspergillus fumigatus (AF980003): 64 ± 2 μM and 28 ± 1 μg/mL
  activity against Aspergillus fumigatus (in words): strong activity
[3]
  CMI or CI80 Candida albicans (CA980001): 57 ± 2 μM and 25 ± 1 μg/mL

## CCn1cc(C(c2ccc(Cl)cc2Cl)n2ccnc2)c2ccccc21.O=[N+]([O-])O (centres unmarked) [42n]
[3]
  CMI or CI80 Candida albicans (CA980001): 73 ± 3 μM and 32 ± 1 μg/mL

## CCn1ccc2cccc(C(c3cccc(Cl)c3)n3ccnc3)c21.O=[N+]([O-])O (centres unmarked) [55n]
[2]
  MIC: >100 µM
[3]
  CMI or CI80 Candida albicans (CA980001): 0.039 µg/mL
  MIC: 0.098 µM
  activity of inhibition of Candida albicans (in words): most active

## CCC(C)n1ncn(-c2ccc(N3CCN(c4ccc(OCC5COC(Cn6cncn6)(c6ccc(Cl)cc6Cl)O5)cc4)CC3)cc2)c1=O (centres unmarked) [Itraconazole]
[2]; Aspergillus fumigatus
  MIC: 0.71 µM (≈ 0.501 µg/mL)
[2]
  CMI or CI80 Aspergillus fumigatus (AF980003): 0.5 µg/mL

## N#Cc1ccc(Cn2cc(Cn3ccnc3)c3cc(Br)ccc32)cc1 [compound 13]
[3]; 24 h at 37° C., MTT
  CMI or CI80 Candida albicans (CA980001): 59 ± 5 μM and 23 ± 2 μg/ml

## CCn1ccc2cccc(C(c3ccc(Cl)cc3)n3ccnc3)c21.O=[N+]([O-])O (centres unmarked) [56n]
[3]
  CMI or CI80 Candida albicans (CA980001): 0.16 µg/mL
  MIC: 0.4 µM
  activity of inhibition of Candida albicans (in words): most active

## CCn1c(C(c2ccc(Cl)cc2Cl)n2ccnc2)c(C)c2ccccc21 (centres unmarked) [compound 30]
[3]
  CMI or CI80 Candida albicans (CA980001): 76 ± 2 μM and 25 ± 1 μg/mL

## CCn1cc(C(c2cccc(Cl)c2)n2ccnc2)c2ccccc21.O=[N+]([O-])O (centres unmarked) [40n]
[3]
  CMI or CI80 Candida albicans (CA980001): 7 ± 1 μM and 3.1 ± 1 μg/mL
  activity of inhibition of Candida albicans (in words): significant activity

## CCn1c(C(c2ccc(Br)cc2)n2ccnc2)c(C)c2ccccc21.O=[N+]([O-])O (centres unmarked) [27n]
[3]
  CMI or CI80 Candida albicans (CA980001): 57 ± 4 μM and 25 ± 2 μg/mL

## Fc1ccc(Cn2c(Cn3ccnc3)cc3ccccc32)cc1.O=[N+]([O-])O [3n]
[3]; 24 h at 37° C., MTT
  CMI or CI80 Candida albicans (CA980001): 16 ± 6 μM and 6 ± 2 μg/ml

## Fc1ccc(Cn2ccc3c(Cn4ccnc4)cccc32)cc1 [compound 17]
[2]; Alamar Blue
  CMI or CI80 Aspergillus fumigatus (AF980003): 72 ± 3 μM and 21.99 ± 2 μg/ml
[3]; 24 h at 37° C., MTT
  CMI or CI80 Candida albicans (CA980001): 54 ± 1 μM and 16.49 ± 1 μg/ml

## Fc1ccc(Cn2ccc3ccc(Cn4ccnc4)cc32)cc1.O=[N+]([O-])O [19n]
[2]; Alamar Blue
  MIC: >100 µM
[3]; 24 h at 37° C., MTT
  CMI or CI80 Candida albicans (CA980001): 77 ± 1 μM and 28.36 ± 1 μg/ml

## CC(c1cn(Cc2ccc(F)cc2F)c2ccccc12)n1ccnc1.O=[N+]([O-])O (centres unmarked) [69n]
[2]
  CMI or CI80 Aspergillus fumigatus (AF980003): 64 ± 5 μM and 21.59 μg/mL
  activity against Aspergillus fumigatus (in words): strong activity
[3]
  CMI or CI80 Candida albicans (CA980001): 65 ± 6 μM and 26 ± 5 μg/mL

## Brc1ccc(C(Cn2ccc3ccccc32)n2ccnc2)cc1 (centres unmarked) [compound 84]
[1]
  CI50 Leishmania mexicana Promastigotes: 3.6 ± 0.4 µg/mL (≈ 9.83 µM)
  IC50: 8.45 ± 1.02 µM
[2]
  CMI or CI80 Aspergillus fumigatus (AF980003): 68 ± 3 μM and 29 ± 1 μg/mL

## CCn1c(C(c2ccc(F)cc2)n2ccnc2)c(C)c2ccccc21 (centres unmarked) [Cpsé 31, 1-Ethyl-2-[(4-fluorophenyl)(1H-imidazol-1-yl)methyl]-3-methyl-1H-indole]
[3]; Candida albicans, 24 h at 37° C., MTT
  MIC: 58 ± 4 µM (≈ 19.3 µg/mL)
[3]; 24 h at 37° C., MTT, listed as 18
  CMI or CI80 Candida albicans (CA980001): 18 ± 1 µg/mL

## CCn1c(C(c2cccc(Br)c2)n2ccnc2)c(C)c2ccccc21.O=[N+]([O-])O (centres unmarked) [26n]
[3]
  CMI or CI80 Candida albicans (CA980001): 60 ± 1 μM and 27 ± 1 μg/mL
